Source: US8158628B2, “Sulfonylated 1,2,3,4-tetrahydropyrrolo[1,2-a]pyrazine compounds and their use as pharmaceuticals” (Gruenenthal GmbH, priority 2009, dated 2012)

target: T1, B1R of the rat (Rattus norvegicus, UniProt P97583); assay: FLIPR Ca2+ functional assay, B1R antagonism, rat B1R in CHO K1 cells; format: cell-based; settings: test substance 10 μM; rB1R CHO K1 cells; agonist Des-Arg9 bradykinin at EC80; % of maximum achievable inhibition
T1 construct: expressed in transfected cells; host or cells: CHO K1 cells (Chinese hamster ovary), stably transfected
T1 sequence (P97583 1-337): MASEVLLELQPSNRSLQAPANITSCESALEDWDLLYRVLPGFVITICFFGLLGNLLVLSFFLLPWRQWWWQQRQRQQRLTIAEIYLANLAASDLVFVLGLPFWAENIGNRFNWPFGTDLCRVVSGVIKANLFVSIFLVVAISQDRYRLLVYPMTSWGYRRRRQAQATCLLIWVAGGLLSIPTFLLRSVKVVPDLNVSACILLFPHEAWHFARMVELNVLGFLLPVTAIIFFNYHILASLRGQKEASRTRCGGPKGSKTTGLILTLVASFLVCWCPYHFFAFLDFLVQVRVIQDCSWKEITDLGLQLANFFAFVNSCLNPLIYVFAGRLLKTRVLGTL
Procedure: The agonistic or antagonistic action of substances on the bradykinin 1 receptor (B1R) of the human and rat species can be quantified with ectopically expressing cell lines (CHO K1 cells) and with the aid of a Ca^2+-sensitive dye (Fluo-4) using a fluorescent imaging plate reader (FLIPR). The value in % activation is based on the Ca^2+ signal after addition of Lys-Des-Arg^9 bradykinin (0.5 nM) or Des-Arg^9 bradykinin (100 nM). Antagonists lead to a suppression of the Ca^2+ influx following administration of the agonist. The % inhibition in comparison with the maximum achievable inhibition is indicated.
1. Functional Investigation on the Bradykinin 1 Receptor (B1R) The agonistic or antagonistic action of substances can be determined on the bradykinin 1 receptor (B1R) of the human and rat species with the following assay. According to this assay, the Ca^2+ inflow through the channel is quantified with the aid of a Ca^2+-sensitive dye (Fluo-4 type, Molecular Probes Europe BV, Leiden, Netherlands) in a fluorescent imaging plate reader (FLIPR, Molecular Devices, Sunnyvale, USA). 2. Method: Chinese hamster ovary cells (CHO K1 cells) which are stably transfected with the human B1R gene (hB1R cells) or the B1R gene of the rat (rB1R cells) are used. For functional investigations these cells are plated-out onto black 96-well plates with a clear base (BD Biosciences, Heidelberg, Germany or Greiner, Frickenhausen, Germany) in a density of 20,000-35,000 cells/well. Overnight the cells are incubated at 37° C. and 5% CO2 in culture medium (hB1R cells: Ham's Nutrient Mixture F12, Gibco Invitrogen GmbH, Karlsruhe, Germany or DMEM, Sigma-Aldrich, Taufkirchen, Germany; rB1R cells: D-MEM/F12, Gibco Invitrogen, Karlsruhe, Germany) with 10 vol. % FBS (foetal bovine serum, Gibco Invitrogen GmbH, Karlsruhe, Germany or PAN Biotech GmbH, Aidenbach, Germany).
On the following day the cells are loaded with 2.13 μM Fluo-4 (Molecular Probes Europe BV, Leiden, Netherlands) in HBSS buffer (Hank's buffered saline solution, Gibco Invitrogen GmbH, Karlsruhe, Germany) with 2.5 mM probenecid (Sigma-Aldrich, Taufkirchen, Germany) and 10 mM HEPES (Sigma-Aldrich, Taufkirchen, Germany) for 60 min at 37° C. The plates are subsequently washed twice with HBSS buffer, and HBSS buffer which additionally contains 0.1% BSA (bovine serum albumin; Sigma-Aldrich, Taufkirchen, Germany), 5.6 mM glucose and 0.05% gelatine (Merck KGaA, Darmstadt, Germany) is added. After a further incubation of 20 minutes at RT, the plates are inserted into the FLIPR for Ca^2+ measurement. Alternatively they are washed with buffer A (15 mM HEPES, 80 mM NaCl, 5 mM KCl, 1.2 mM CaCl2, 0.7 mM MgSO4, 2 g/l glucose, 2.5 mM probenecid) and loaded with buffer A with added 2.5 μM Fluo-4 and 0.025% Pluronic F127 (Sigma-Aldrich, Taufkirchen, Germany). The cells are then washed twice with buffer A and incubated for 30 minutes with buffer A, which additionally contains 0.05% BSA and 0.05% gelatine, at RT and then used for Ca^2+ measurement in the FLIPR. The Ca^2+-dependent fluorescence is measured here before and after addition of substances (λex=488 nm, λem=540 nm). The quantification is performed by measuring the highest fluorescence intensity (FC, fluorescence counts) over time.
The FLIPR protocol comprises two additions of substance. Test substances (10 μM) are first pipetted onto the cells and the Ca^2+ inflow is compared with the control (hB1R: Lys-Des-Arg^9 bradykinin >=50 nM; rB1R: Des-Arg^9 bradykinin 10 μM). The value in % activation based on the Ca^2+ signal after addition of Lys-Des-Arg^9 bradykinin (>=50 nM) or Des-Arg^9 bradykinin (10 μM) is obtained therefrom. After incubation for 10-20 minutes, Lys-Des-Arg^9 bradykinin (hB1R) or Des-Arg^9 bradykinin (rB1R) is applied in the EC80 concentration and the inflow of Ca^2+ is likewise determined.
Antagonists lead to a suppression of the Ca^2+ inflow. The % inhibition in comparison with the maximum achievable inhibition is calculated. […]

Structure (SMILES)	inhibition at 10 µM [%]
Cc1cccc(Cl)c1S(=O)(=O)N1CCn2cccc2C1CC(=O)N1CCN(Cc2ccc(Cl)cc2)CC1 (stereo not shown) [Example 249, 2-[2-[(2-Chloro-6-methyl-phenyl)sulfonyl]-1,2,3,4-tetrahydro-pyrrolo[1,2-a]pyrazin-1-yl]-1-[4-[(4-chlorophenyl)-methyl]-piperazin-1-yl]-ethanone]	-12.6
Cc1cccc(Cl)c1S(=O)(=O)N1CCn2cccc2C1CC(=O)N(C)C(CN1CCOCC1)c1ccccc1 (stereo not shown) [Example 259, 2-[2-[(2-Chloro-6-methyl-phenyl)sulfonyl]-1,2,3,4-tetrahydro-pyrrolo[1,2-a]pyrazin-1-yl]-N-methyl-N-(2-morpholin-4-yl-1-phenyl-ethyl)-acetamide]	4.54
N#Cc1cccnc1N1CCN(C(=O)CC2c3cccn3CCN2S(=O)(=O)c2cccc(C(F)(F)F)c2)CC1 (stereo not shown) [Example 269, 2-[4-[2-[2-[[3-(Trifluoromethyl)phenyl]sulfonyl]-1,2,3,4-tetrahydro-pyrrolo[1,2-a]pyrazin-1-yl]-acetyl]-piperazin-1-yl]-pyridine-3-carbonitrile]	1.05
COc1cc(C)c(S(=O)(=O)N2CCn3cccc3C2CC(=O)N2CCN(CCn3c(C)ccc3C)CC2)c(C)c1 (stereo not shown) [Example 147, 1-[4-[2-(2,5-Dimethyl-1H-pyrrol-1-yl)-ethyl]-piperazin-1-yl]-2-[2-[(4-methoxy-2,6-dimethyl-phenyl)sulfonyl]-1,2,3,4-tetrahydro-pyrrolo[1,2-a]pyrazin-1-yl]-ethanone]	86.5
O=C(CC1c2cccn2CCN1S(=O)(=O)c1ccc(C(F)(F)F)cc1Cl)N1CCc2ccccc2C1 (stereo not shown) [Example 20, 2-(2-(2-Chloro-4-(trifluoromethyl)phenylsulfonyl)-1,2,3,4-tetrahydropyrrolo[1,2-a]pyrazin-1-yl)-1-(3,4-dihydroisoquinolin-2(1H)-yl)ethanone]	30.7
Cc1ccc2[nH]c(C3CCN(C(=O)CC4c5cccn5CCN4S(=O)(=O)c4ccccc4)CC3)nc2c1 (stereo not shown) [Example 180, 2-[2-(Benzenesulfonyl)-1,2,3,4-tetrahydro-pyrrolo[1,2-a]pyrazin-1-yl]-1-[4-(5-methyl-1H-benzoimidazol-2-yl)-piperidin-1-yl]-ethanone]	32.9
Cc1cccc(Cl)c1S(=O)(=O)N1CCn2cccc2C1CC(=O)NCCCN1CCOCC1 (stereo not shown) [Example 154, 2-[2-[(2-Chloro-6-methyl-phenyl)sulfonyl]-1,2,3,4-tetrahydro-pyrrolo[1,2-a]pyrazin-1-yl]-N-(3-morpholin-4-yl-propyl)-acetamide]	41.9
COc1ccc(CN2CCN(C(=O)CC3c4cccn4CCN3S(=O)(=O)c3c(C)cc(OC)cc3C)CC2)cc1 (stereo not shown) [Example 242, 2-[2-[(4-Methoxy-2,6-dimethyl-phenyl)sulfonyl]-1,2,3,4-tetrahydro-pyrrolo[1,2-a]pyrazin-1-yl]-1-[4-[(4-methoxyphenyl)-methyl]-piperazin-1-yl]-ethanone]	8.4
O=C(CC1c2cccn2CCN1S(=O)(=O)c1cccc(C(F)(F)F)c1)N1CCN(c2ccccc2F)CC1 (stereo not shown) [Example 186, 1-[4-(2-Fluorophenyl)-piperazin-1-yl]-2-[2-[[3-(trifluoromethyl)phenyl]sulfonyl]-1,2,3,4-tetrahydro-pyrrolo[1,2-a]pyrazin-1-yl]-ethanone]	24.4
COc1cc(C)c(S(=O)(=O)N2CCn3cccc3C2CC(=O)N2CCCCCC2c2ccc(N(C)C)cc2)c(C)c1 (stereo not shown) [Example 255, 1-[2-(4-Dimethylaminophenyl)-azepan-1-yl]-2-[2-[(4-methoxy-2,6-dimethyl-phenyl)sulfonyl]-1,2,3,4-tetrahydro-pyrrolo[1,2-a]pyrazin-1-yl]-ethanone]	-7.23
Cc1cccc(Cl)c1S(=O)(=O)N1CCn2cccc2C1CC(=O)N1CCN(c2ccccc2F)CC1 (stereo not shown) [Example 158, 2-[2-[(2-Chloro-6-methyl-phenyl)sulfonyl]-1,2,3,4-tetrahydro-pyrrolo[1,2-a]pyrazin-1-yl]-1-[4-(2-fluorophenyl)-piperazin-1-yl]-ethanone]	32
Cc1ccc(CN2CCN(C(=O)CC3c4cccn4CCN3S(=O)(=O)c3ccccc3)CC2)cc1 (stereo not shown) [Example 232, 2-[2-(Benzenesulfonyl)-1,2,3,4-tetrahydro-pyrrolo[1,2-a]pyrazin-1-yl]-1-[4-(p-tolyl-methyl)-piperazin-1-yl]-ethanone]	2.94
COc1cc(C)c(S(=O)(=O)N2CCn3cccc3C2CC(=O)N2CCN(CCC#N)CC2)c(C)c1 (stereo not shown) [Example 247, 3-[4-[2-[2-[(4-Methoxy-2,6-dimethyl-phenyl)sulfonyl]-1,2,3,4-tetrahydro-pyrrolo[1,2-a]pyrazin-1-yl]-acetyl]-piperazin-1-yl]-propionitrile]	-27.4
COc1cc(C)c(S(=O)(=O)N2CCn3cccc3C2CC(=O)N2CCN(Cc3c(C)cc(C)cc3C)CC2)c(C)c1 (stereo not shown) [Example 239, 2-[2-[(4-Methoxy-2,6-dimethyl-phenyl)sulfonyl]-1,2,3,4-tetrahydro-pyrrolo[1,2-a]pyrazin-1-yl]-1-[4-[(2,4,6-trimethyl-phenyl)-methyl]-piperazin-1-yl]-ethanone]	-8.74
O=C(CC1c2cccn2CCN1S(=O)(=O)c1ccccc1)NC1CCN(Cc2ccccc2)C1 (stereo not shown) [Example 171, 2-[2-(Benzenesulfonyl)-1,2,3,4-tetrahydro-pyrrolo[1,2-a]pyrazin-1-yl]-N-(1-benzyl-pyrrolidin-3-yl)-acetamide]	24.4
COc1cc(C)c(S(=O)(=O)N2CCn3cccc3C2CC(=O)NCC2CCCN(Cc3ccccc3)C2)c(C)c1 (stereo not shown) [Example 248, N-[(1-Benzyl-piperidin-3-yl)-methyl]-2-[2-[(4-methoxy-2,6-dimethyl-phenyl)sulfonyl]-1,2,3,4-tetrahydro-pyrrolo[1,2-a]pyrazin-1-yl]-acetamide]	84
Cc1cccc(Cl)c1S(=O)(=O)N1CCn2cccc2C1CC(=O)N1CCC(N2CCCCC2)CC1 (stereo not shown) [Example 160, 2-[2-[(2-Chloro-6-methyl-phenyl)sulfonyl]-1,2,3,4-tetrahydro-pyrrolo[1,2-a]pyrazin-1-yl]-1-(4-piperidin-1-yl-piperidin-1-yl)-ethanone]	42.8
O=C(CC1c2cccn2CCN1S(=O)(=O)c1ccccc1)NCC1CCCN(Cc2ccccc2)C1 (stereo not shown) [Example 235, 2-[2-(Benzenesulfonyl)-1,2,3,4-tetrahydro-pyrrolo[1,2-a]pyrazin-1-yl]-N-[(1-benzyl-piperidin-3-yl)-methyl]-acetamide]	-14
COc1cc(C)c(S(=O)(=O)N2CCn3cccc3C2CC(=O)N2CCN(Cc3ccc(Cl)cc3)CC2)c(C)c1 (stereo not shown) [Example 240, 1-[4-[(4-Chlorophenyl)-methyl]-piperazin-1-yl]-2-[2-[(4-methoxy-2,6-dimethyl-phenyl)sulfonyl]-1,2,3,4-tetrahydro-pyrrolo[1,2-a]pyrazin-1-yl]-ethanone]	55.9
